Tested on: M. smegmatis mc^2155 biofilm
Test: Assay for M. smegmatis biofilm inhibition (pellicle formation in M63 medium)
Format: cell-based
Description: Two ml of 7H9/ADC culture medium was inoculated with […] of a starter culture of M. smegmatis mc^2155 in 40% glycerol and incubated at 37° C. without shaking for 16-24 hr. This culture was transferred into 10 ml of GAS medium and incubated in the incubator/shaker at 37° C. to an absorbance at 650 nm of <1.5, diluted to an absorbance of 0.02-0.03 in M63 culture medium. Then aliquots of 2.0 ml of this inoculated M63 medium were placed in sterile 1.5×10-cm glass tubes and the purified compounds to be tested were added. The test tubes were incubated in the heat block at 37° C. for 3 to 7 days. Pellicles began to form at the air-liquid interface of control culture on day-2, the pellicle thickened and cells began climbing up the surface of the glass. Such pellicles are recognized as biofilm. In the biofilm inhibition assay, the purified compounds dissolved in CM (2:1) were added at zero time and the development of biofilm was recorded on day-3 and -4.
In the biofilm inhibition assay, control culture began developing a smooth surface growth after two days and the cells began to climb up the wall of the tube. The surface growth continued and thickened over days-4 and -5. There was no observable submerged growth in the M63 medium over this period. […] After this period, rough surface pellicles began to appear along with some submerged growth (planktonic growth).

| Substance | concentration for complete inhibition of M. smegmatis biofilm formation [µg/mL] | biological activity in M. smegmatis biofilm inhibition assay (concentration not given) |
| --- | --- | --- |
| C16:3-fatty acyl-/C25-mycocerosyl-phthiotriol diester | 12.5 | – |
| Trehalose monomycolate [TMM, reference compound] | – | not active |

From US20130245116A1, “COMPOSITIONS AND METHODS FOR THE DISRUPTION OF MYCOBACTERIUM BIOFILM” (priority 2011, published 2013)
